Measured values from US20200138056A1, “ANIMAL FEED SUPPLEMENT” (MOOTRAL SA, priority 2017, published 2020).

Columns and labels:
ruminal fluid [1] = experiment: in vitro Hohenheim gas test (HGT), volatile fatty acids (VFA) by HPLC; assay type: cell-based, sheep; details: Table 2; 98.8 μg/ml
Procedure: (§1) The in vitro Hohenheim gas test (HGT) including the preparation of all buffers and reagents was carried out according to the protocol of Menke and Steingass (1988), “Menke K. H., Steingass H., Estimation of the energetic feed value obtained from chemical analysis and gas production using rumen fluid, Anim. Res. Dev. 28, 7-55”, the contents of which are incorporated herein by reference.
Briefly, ruminal fluid was strained through four layers of gauze (1 mm pore size, type 17 MedPro, Novamed AG, Flawil, Switzerland), before being mixed with preheated, reduced Menke buffer (Menke and Steingass, 1988). The ruminal fluid/buffer mixture was then dispensed into pre-warmed incubation units containing the respective test additives. […] After 8 hours, total gas and liquid volumes were recorded from the calibrated scale printed on the incubation units and fermentation was terminated by decanting only the incubation liquid from the incubation units while fermentation gas was left inside. […]
Fermentation gas was analysed on a Hewlett Packard gas chromatograph (model 5890 Series II, Avondale, Pa., USA) for methane concentration. For the analysis of the volatile fatty acids (VFA), samples were prepared according to the method of Doane et al. (1998) and determined by HPLC (LaChrom, L-7000 series, Hitachi Ltd., Tokyo, Japan) following the protocol of Ehrlich et al. (1981). […]

ruminal fluid [2] = experiment: in vitro Hohenheim gas test (HGT), methane concentration in fermentation gas; assay type: cell-based, sheep; details: 98.8 μg/ml; for Average Reduction (%) / Percentage of Control (First Run) / Percentage of Control (Second Run): methane; for Average Reduction (%): average of two runs
Procedure: as §1
Briefly, ruminal fluid was strained through four layers of gauze (1 mm pore size, type 17 MedPro, Novamed AG, Flawil, Switzerland), before being mixed with preheated, reduced Menke buffer (Menke and Steingass, 1988). The ruminal fluid/buffer mixture was then dispensed into pre-warmed incubation units containing the respective test additives. Each airtight syringe unit contained 25 ml of a ruminal fluid/buffer mixture (1:3; v/v), 300 mg dried and ground total mixed ration (TMR) and […] of the test substrate prepared to give a desired concentration ml^−1. Each test substrate and controls were tested in six replicates, with each run including a substrate control (rumen fluid plus 300 mg dried and ground substrate of the total mixed ration (TMR) fed to the fistulated sheep from which the ruminal fluid was obtained). Each substrate was also tested on different days to allow for variability in the microbial community. This mixture was incubated for 8 hours at a constant temperature of 39° C. After 8 hours, total gas and liquid volumes were recorded from the calibrated scale printed on the incubation units and fermentation was terminated by decanting only the incubation liquid from the incubation units while fermentation gas was left inside. Then […] of gas was drawn from the incubation units with a Hamilton syringe (Hamilton, AG, Bonaduz, Switzerland) through a gas-tight septum covering the second outlet of the modified units. The main constituents of the flavonoid mix were naringin and neohesperidin at a ratio of 2.10:0.92. Monensin, a polyether antibiotic isolated from Streptomyces cinnamonensis, was used as a positive control.
Fermentation gas was analysed on a Hewlett Packard gas chromatograph (model 5890 Series II, Avondale, Pa., USA) for methane concentration. For the analysis of the volatile fatty acids (VFA), samples were prepared according to the method of Doane et al. (1998) and determined by HPLC (LaChrom, L-7000 series, Hitachi Ltd., Tokyo, Japan) following the protocol of Ehrlich et al. (1981). Reduction in methane emission results in accumulation of H2, which leads to the decreases of acetate:propionate ratio and acetate:butyrate ratio. This decreased ratio indicates an increase in propionate and butyrate (as formation of propionate and butyrate uses up the H2). The increase in propionate would then result in an increase of meat productivity in ruminants, while the increase in butyrate results in an increase of milk productivity in ruminants.
The in vitro Hohenheim gas test (HGT) was used to measure average reduction in methane using a composition comprising allicin and a green tea extract and a composition comprising allicin and a pomegranate extract. The green tea and pomegranate extracts were purchased from Ethical Natural Inc. (USA).
A composition comprising allicin and the flavonoid mix used in Example 1 was also tested. Monensin, a polyether antibiotic isolated from Streptomyces cinnamonensis, was used as a positive control.

## CC[C@@]1([C@@H]2O[C@@H]([C@H]3O[C@@](O)(CO)[C@H](C)C[C@@H]3C)C[C@@H]2C)CC[C@H]([C@]2(C)CC[C@]3(C[C@H](O)[C@@H](C)[C@@H]([C@@H](C)[C@@H](OC)[C@H](C)C(=O)O)O3)O2)O1 [Monensin]
Ruminal fluid [1]
  Butyrate Percentage of Control (%): 73%
  Propionate Percentage of Control (%): 116%
Ruminal fluid [2]; Table 1, 8 h, 39° C.
  Average Methane Concentration (%) (First Run): 8.89%
  Average Methane Concentration (%) (Second Run): 9.71%
Ruminal fluid [2]; Table 1
  Average Reduction (%): 27%
  Percentage of Control (First Run): 73%
  Percentage of Control (Second Run): 74%
Ruminal fluid [2]; Table 3
  Average Methane Concentration (%) (First Run): 8.2%
  Average Methane Concentration (%) (Second Run): 9.9%
  Average Reduction (%): 27%
  Percentage of Control (First Run): 66%
  Percentage of Control (Second Run): 80%
Ruminal fluid [2]; Table 4
  Average Methane Concentration (%) (First Run): 8.1%
  Average Methane Concentration (%) (Second Run): 7.1%
  Average Reduction (%): 33%
  Percentage of Control (First Run): 67%
  Percentage of Control (Second Run): 66%
